Experiments:
[1] = Feeding experiment on Beagle hounds (body weight, feed consumption, behaviour and general state); type: in vivo
Method: The efficacy of the compounds of the formula I for the treatment of obesity can be determined in vivo as follows (cf. Example B): A certain dose or varying doses of the test compound is administered to one group of experimental animals over an extended period. The amount of feed consumed and the body weight of the experimental animals are recorded regularly. At the same time, the behaviour and general state of the animals are monitored in a manner known per se. Conclusions can be drawn on the suitability of the test compound for the treatment of obesity from the decrease in the body weight and the take-up of feed in the experimental period with an otherwise unchanged general state and in the absence of changes in behaviour. The test substance in the form of hard gelatine capsules produced as described in Example B7 is administered once daily over a period of 11 days to a group of Beagle hounds about 8 months old which had been dewormed in advance. The amount of feed consumed is determined daily by re-weighing the unconsumed feed, the body weight before (day 0), during (day 5) and after (day 12) the feeding experiment. At the same time, the behaviour and general state of the animals are monitored over the entire experimental period. Drinking water in unlimited amount is available to the dogs. […] The behaviour and general state of the dogs are not impaired in the experimental period by the administration of the test substance.

[2] = as above; type: in vivo; remark: listed apart in the source
[3] = Beagle hounds, once daily oral capsules over 11 days

Cl.N#Cc1c[nH]c2c(C(=O)N3CCN(CCc4ccc(F)cc4)CC3)cccc12 [(3-cyano-1H-indol-7-yl)[4-(4-fluoro-phenethyl)piperazin-1-yl]methanone, hydrochloride]
body weight ([1]; Dog 8910 (male), day 0, before dosing): 8.6 kg | feed consumption ([1]; Dog 8910 (male), day 2, dose 10 mg/kg): 320 g | body weight ([1]; Dog 8910 (male), day 5, once daily capsules 3, 10, 30 mg/kg days 1-3, 100 mg/kg from day 4): 8.6 kg | feed consumption ([1]; Dog 8910 (male), day 6, dose 100 mg/kg): 240 g | feed consumption ([1]; Dog 8910 (male), day 10, dose 100 mg/kg): 20 g | body weight ([1]; Dog 8910 (male), day 12, after 3, 10, 30 mg/kg days 1-3 and 100 mg/kg days 4-11): 7.8 kg | feed consumption ([1]; Dog 8936 (female), day 6, dose 100 mg/kg): 140 g | behaviour and general state of the dogs ([2]; Beagle hounds, experimental period, doses up to 100 mg/kg): not impaired | body weight change (in words) [2, 3]: significant reduction in body weight | consumption of feed during the experiment (in words) [2, 3]: increasingly restrict the consumption of feed | body weight ([2]; Dog 1201 (male), day 0, before dosing): 6.8 kg | feed consumption ([2]; Dog 1201 (male), day 1, no dose yet (dosing starts day 5)): 440 g | feed consumption ([2]; Dog 1201 (male), day 2, no dose yet (dosing starts day 5)): 260 g | feed consumption ([2]; Dog 1201 (male), day 3, no dose yet (dosing starts day 5)): 400 g | feed consumption ([2]; Dog 1201 (male), day 4, no dose yet (dosing starts day 5)): 230 g | feed consumption ([2]; Dog 1201 (male), day 5, dose 50 mg/kg): 340 g | body weight ([2]; Dog 1201 (male), day 5, first day of 50 mg/kg): 7.1 kg | feed consumption ([2]; Dog 1201 (male), day 6, dose 50 mg/kg): 220 g | feed consumption ([2]; Dog 1201 (male), day 7, dose 50 mg/kg): 160 g | feed consumption ([2]; Dog 1201 (male), day 8, dose 50 mg/kg): 170 g | feed consumption ([2]; Dog 1201 (male), day 9, dose 50 mg/kg): 130 g | feed consumption ([2]; Dog 1201 (male), day 10, dose 50 mg/kg): 80 g | feed consumption ([2]; Dog 1201 (male), day 11, dose 50 mg/kg): 40 g | body weight ([2]; Dog 1201 (male), day 12, after 50 mg/kg days 5-11): 6.3 kg | body weight ([2]; Dog 2164 (female), day 0, before dosing): 6.1 kg | feed consumption ([2]; Dog 2164 (female), day 1, no dose yet (dosing starts day 5)): 310 g | feed consumption ([2]; Dog 2164 (female), day 2, no dose yet (dosing starts day 5)): 270 g | feed consumption ([2]; Dog 2164 (female), day 3, no dose yet (dosing starts day 5)): 280 g | feed consumption ([2]; Dog 2164 (female), day 4, no dose yet (dosing starts day 5)): 280 g | feed consumption ([2]; Dog 2164 (female), day 5, dose 50 mg/kg): 340 g | body weight ([2]; Dog 2164 (female), day 5, first day of 50 mg/kg): 5.9 kg | feed consumption ([2]; Dog 2164 (female), day 6, dose 50 mg/kg): 180 g | feed consumption ([2]; Dog 2164 (female), day 7, dose 50 mg/kg): 260 g | feed consumption ([2]; Dog 2164 (female), day 8, dose 50 mg/kg): 150 g | feed consumption ([2]; Dog 2164 (female), day 9, dose 50 mg/kg): 140 g | feed consumption ([2]; Dog 2164 (female), day 10, dose 50 mg/kg): 130 g | feed consumption ([2]; Dog 2164 (female), day 11, dose 50 mg/kg): 60 g | body weight ([2]; Dog 2164 (female), day 12, after 50 mg/kg days 5-11): 5.5 kg | feed consumption ([2]; Dog 8910 (male), day 1, dose 3 mg/kg): 380 g | feed consumption ([2]; Dog 8910 (male), day 3, dose 30 mg/kg): 370 g | feed consumption ([2]; Dog 8910 (male), day 4, dose 100 mg/kg): 320 g | feed consumption ([2]; Dog 8910 (male), day 5, dose 100 mg/kg): 250 g | feed consumption ([2]; Dog 8910 (male), day 7, dose 100 mg/kg): 60 g | feed consumption ([2]; Dog 8910 (male), day 8, dose 100 mg/kg): 60 g | feed consumption ([2]; Dog 8910 (male), day 9, dose 100 mg/kg): 40 g | feed consumption ([2]; Dog 8910 (male), day 11, dose 100 mg/kg): 90 g | body weight ([2]; Dog 8936 (female), day 0, before dosing): 7.5 kg | feed consumption ([2]; Dog 8936 (female), day 1, dose 3 mg/kg): 380 g | feed consumption ([2]; Dog 8936 (female), day 2, dose 10 mg/kg): 380 g | feed consumption ([2]; Dog 8936 (female), day 3, dose 30 mg/kg): 360 g | feed consumption ([2]; Dog 8936 (female), day 4, dose 100 mg/kg): 220 g | feed consumption ([2]; Dog 8936 (female), day 5, dose 100 mg/kg): 200 g | body weight ([2]; Dog 8936 (female), day 5, once daily capsules 3, 10, 30 mg/kg days 1-3, 100 mg/kg from day 4): 7.3 kg | feed consumption ([2]; Dog 8936 (female), day 7, dose 100 mg/kg): 80 g | feed consumption ([2]; Dog 8936 (female), day 8, dose 100 mg/kg): 30 g | feed consumption ([2]; Dog 8936 (female), day 9, dose 100 mg/kg): 30 g | feed consumption ([2]; Dog 8936 (female), day 10, dose 100 mg/kg): 70 g | feed consumption ([2]; Dog 8936 (female), day 11, dose 100 mg/kg): 10 g | body weight ([2]; Dog 8936 (female), day 12, after 3, 10, 30 mg/kg days 1-3 and 100 mg/kg days 4-11): 6.2 kg
